Results reported in PMC10455244, “Alpha-Mangostin: A Potent Inhibitor of TRPV3 and Pro-Inflammatory Cytokine Secretion in Keratinocytes” (International Journal of Molecular Sciences, 2023).

Tests used:
TRPV3 [1] = molecular target: T1, TRPV3 (Homo sapiens, UniProt Q8NET8); assay: Fura-2 calcium imaging, carvacrol-induced Ca2+ increase in NHEK; assay type: cell-based; set-up: host or cells: NHEK; conditions: 300 µM carvacrol, keratinocytes (NHEK), control 0.029 ± 0.003
T1 sequence (Q8NET8 1-790): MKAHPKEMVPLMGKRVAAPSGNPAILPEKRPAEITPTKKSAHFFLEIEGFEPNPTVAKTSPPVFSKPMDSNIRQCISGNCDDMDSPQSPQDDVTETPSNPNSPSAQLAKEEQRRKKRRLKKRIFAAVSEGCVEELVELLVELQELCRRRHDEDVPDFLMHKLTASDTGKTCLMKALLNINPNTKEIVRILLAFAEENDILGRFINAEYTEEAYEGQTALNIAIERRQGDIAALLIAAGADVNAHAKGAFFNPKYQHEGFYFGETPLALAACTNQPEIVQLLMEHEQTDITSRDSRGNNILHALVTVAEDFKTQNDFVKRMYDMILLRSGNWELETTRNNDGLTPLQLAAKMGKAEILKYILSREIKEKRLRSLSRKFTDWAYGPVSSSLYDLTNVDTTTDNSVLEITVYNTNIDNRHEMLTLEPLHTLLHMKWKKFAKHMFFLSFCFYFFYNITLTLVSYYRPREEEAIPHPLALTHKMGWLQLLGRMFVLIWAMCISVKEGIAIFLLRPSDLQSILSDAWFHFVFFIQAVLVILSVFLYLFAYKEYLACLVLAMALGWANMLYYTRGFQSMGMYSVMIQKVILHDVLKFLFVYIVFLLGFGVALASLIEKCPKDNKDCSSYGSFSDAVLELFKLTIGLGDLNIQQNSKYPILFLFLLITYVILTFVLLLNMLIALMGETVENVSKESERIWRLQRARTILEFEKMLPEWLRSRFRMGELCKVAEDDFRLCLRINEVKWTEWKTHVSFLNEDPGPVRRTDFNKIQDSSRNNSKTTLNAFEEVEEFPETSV
Protocol: (§1) Since the TRPV3-mediated calcium influx is reported to contribute to proper skin function, we investigated whether alpha-mangostin inhibits the intracellular calcium increase induced by carvacrol in hTRPV3-overexpressing HEK 293T cells and keratinocytes. […] In hTRPV3-overexpressing HEK 293T cells, ∆(F340/F380) decreased by approximately 25% and 70% upon exposure to 0.3 µM and 3 µM alpha-mangostin, respectively (Figure 3A, 0.424 ± 0.032 vs. 0.316 ± 0.030 and 0.144 ± 0.006, respectively).
Figure 3 Alpha-mangostin (α-MG) inhibited TRPV3-mediated intracellular calcium increase. Cells were perfused with solutions containing 0.3 µM, 3 µM alpha-mangostin or 10 µM 74a before the addition of 300 µM carvacrol (red, green, and blue lines, respectively). […]
Fura-2 AM (Thermo Fisher Scientific) was utilized as a fluorescent indicator to measure calcium signal, as described previously. […] To measure the cytosolic Ca^2+ level, a sequential excitation of Fura-2 is performed at 340 nm and 380 nm; then, the emission signals resulting from each excitation wavelength are measured and the ratio of these signals is calculated. […] Samples were excited using a wavelength of 380 nm for 20 ms, followed by 340 nm for 100 ms, and fluorescence at 510 nm was recorded. Recorded data were then analyzed using NIS-Element AR Version 5.00.00 (Nikon Instruments, Melville, NY, USA). […]

TRPV3 [2] = molecular target: T1, TRPV3; assay: Fura-2 calcium imaging, carvacrol-induced Ca2+ increase in hTRPV3-overexpressing HEK 293T cells; assay type: cell-based; set-up: expressed in transfected cells; conditions: 300 µM carvacrol; for ∆(F340/F380): control 0.424 ± 0.032
Protocol: as §1
Figure 3 Alpha-mangostin (α-MG) inhibited TRPV3-mediated intracellular calcium increase. Cells were perfused with solutions containing 0.3 µM, 3 µM alpha-mangostin or 10 µM 74a before the addition of 300 µM carvacrol (red, green, and blue lines, respectively). Cells only perfused with normal Tyrode (NT) solution in the presence (black line) or absence (purple line) of 300 µM carvacrol were employed as the control. (A) Alpha-mangostin inhibited TRPV3-mediated intracellular calcium increase in response to carvacrol in TRPV3-overexpressing HEK 293T cells. […] The bar graph on the bottom summarizes the change in the intracellular calcium rise inhibited by alpha-mangostin. (B) Alpha-mangostin inhibited TRPV3-mediated intracellular calcium increase in response to carvacrol in normal human epidermal keratinocytes (NHEK). […] The bar graph on the bottom summarizes the change in the intracellular calcium rise inhibited by alpha-mangostin. Data are presented as means ± SEM. ** p < 0.01, *** p < 0.001, **** p < 0.0001.
Fura-2 AM (Thermo Fisher Scientific) was utilized as a fluorescent indicator to measure calcium signal, as described previously. Fura-2 acetoxymethyl ester (Fura-2 AM) is a widely used fluorescent calcium indicator. After crossing the cell membrane and entering the cytosol, Fura-2 AM is cleaved into its activated form, Fura-2 [49]. After binding to the cytosolic free Ca^2+, the peak excitation of Fura-2 shifts from 380 nm (Ca^2+-free state) to 340 nm (Ca^2+-bound state), while the peak emission remains unchanged at around 510 nm. To measure the cytosolic Ca^2+ level, a sequential excitation of Fura-2 is performed at 340 nm and 380 nm; then, the emission signals resulting from each excitation wavelength are measured and the ratio of these signals is calculated. […] Samples were excited using a wavelength of 380 nm for 20 ms, followed by 340 nm for 100 ms, and fluorescence at 510 nm was recorded. Recorded data were then analyzed using NIS-Element AR Version 5.00.00 (Nikon Instruments, Melville, NY, USA).
The change in the fluorescence ratio when the cells were excited at 340 nm and 380 nm (ΔF340/380) during the measurements was calculated by subtracting the ratio obtained at the beginning of the experiment from each subsequent ratio obtained at different time points. […]

COc1c(O)cc2oc3cc(O)c(CC=C(C)C)c(O)c3c(=O)c2c1CC=C(C)C [Alpha-mangostin]
Change in F340/F380 (TRPV3 [1]; 0.3 µM): 0.019 ± 0.002
Change in F340/F380 (TRPV3 [1]; 3 µM): 0.010 ± 0.002
Decrease of ∆(F340/F380) (TRPV3 [2]; 0.3 µM): approximately 25%
∆(F340/F380) (TRPV3 [2]; 0.3 µM): 0.316 ± 0.030
Decrease of ∆(F340/F380) (TRPV3 [2]; 3 µM): ~70%
∆(F340/F380) (TRPV3 [2]; 3 µM): 0.144 ± 0.006
